Experimental data reported in patent publication US20200246403A1, “YEAST EXTRACT HAVING DIABETES PREVENTION EFFECT” (MITSUBISHI CORPORATION LIFE SCIENCES LIMITED, priority 2016, published 2020).

Tested on: rat myoblasts (L6 cells)
Experiment: Measurement of glucose uptake activity in rat myoblasts (L6 cells), 2-NBDG fluorescence
Type: cell-based
Details: insulin final concentration 100 nM (positive control), 100 μM 2-NBDG, 20 minutes
Method: Test 1: Measurement of Glucose Uptake Activity in Rat Myoblasts (L6 Cells)
L6 cells were seeded (1×10^4 cells/well) in a 96-well plate with a D-MEM medium (Dulbecco/Vogt modified Eagle's minimal essential medium) containing 10% fetal bovine serum, and pre-cultured for 48 hours (5% CO2, 37° C.) Then, the medium was replaced with a D-MEM medium containing 2% horse serum and culture was performed for 96 hours (5% CO2, 37° C.) to induce differentiation. Subsequently, the medium was replaced with a serum-free D-MEM medium, and synchronous culture was performed for 4 hours (5% CO2, 37° C.). Thereafter, the wells were washed with a KRPH buffer (Krebs Ringer Phosphate Hepes buffer), and 100 μL of a sample solution (final concentration 1 mg/mL or 5 mg/mL) dissolved in a KRPH buffer containing 100 μM 2-NBDG (2-deoxy-2-[(7-nitro-2,1,3-benzoxadiazol-4-yl)amino]-D-glucose) was added and incubated for 20 minutes (5% […], 37° C.). […] The fluorescence intensity of 2-NBDG, as the fluorescent glucose analogue incorporated into the cells, was measured at an excitation wavelength of 470 nm and a detection wavelength of 550 nm using a microplate reader. The glucose uptake activity was determined based on the following formula as the ratio of the fluorescence intensity (FS) in the case of making the sample solution react when the fluorescence intensity (FC) of the control was taken as 100. […]

insulin was tested, and the Glucose uptake activity was “significantly increased”.
